Measured values from patent US9884063B2, “Amido-substituted azole compounds” (Bayer Pharma Aktiengesellschaft, priority 2014, dated 2018).
pIC50: −log10 of the molar value.

Key:
[1] = system: wildtype Wnt signaling cascade; assay: HEK293 TOP Assay (Super TopFlash luciferase reporter, Wnt-3a stimulated); assay type: cell-based; settings: Homo sapiens, HEK293, 16 h
Summary of the method: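 HEK293 cells stably carrying Super TopFlash (TOP) or FOP reporter, stimulated with recombinant human Wnt-3a (2500–5 ng/ml, two-fold steps). Both lines incubated in parallel with compound from 50 μM to 15 nM (3.16-fold) in CAFTY buffer pH 7.4 with 2 mM Ca2+ and 0.01% BSA; selectivity judged TOP vs FOP.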

TNKS1 = biological target: T1, TNKS1 (Homo sapiens, UniProt O95271); assay: Modified TNKS1 Assay 2 (auto-parsylation, [3H]-NAD+ SPA); assay type: biochemical; settings: 6 nM TNKS1, 96 well
T1 sequence (O95271 1-1327): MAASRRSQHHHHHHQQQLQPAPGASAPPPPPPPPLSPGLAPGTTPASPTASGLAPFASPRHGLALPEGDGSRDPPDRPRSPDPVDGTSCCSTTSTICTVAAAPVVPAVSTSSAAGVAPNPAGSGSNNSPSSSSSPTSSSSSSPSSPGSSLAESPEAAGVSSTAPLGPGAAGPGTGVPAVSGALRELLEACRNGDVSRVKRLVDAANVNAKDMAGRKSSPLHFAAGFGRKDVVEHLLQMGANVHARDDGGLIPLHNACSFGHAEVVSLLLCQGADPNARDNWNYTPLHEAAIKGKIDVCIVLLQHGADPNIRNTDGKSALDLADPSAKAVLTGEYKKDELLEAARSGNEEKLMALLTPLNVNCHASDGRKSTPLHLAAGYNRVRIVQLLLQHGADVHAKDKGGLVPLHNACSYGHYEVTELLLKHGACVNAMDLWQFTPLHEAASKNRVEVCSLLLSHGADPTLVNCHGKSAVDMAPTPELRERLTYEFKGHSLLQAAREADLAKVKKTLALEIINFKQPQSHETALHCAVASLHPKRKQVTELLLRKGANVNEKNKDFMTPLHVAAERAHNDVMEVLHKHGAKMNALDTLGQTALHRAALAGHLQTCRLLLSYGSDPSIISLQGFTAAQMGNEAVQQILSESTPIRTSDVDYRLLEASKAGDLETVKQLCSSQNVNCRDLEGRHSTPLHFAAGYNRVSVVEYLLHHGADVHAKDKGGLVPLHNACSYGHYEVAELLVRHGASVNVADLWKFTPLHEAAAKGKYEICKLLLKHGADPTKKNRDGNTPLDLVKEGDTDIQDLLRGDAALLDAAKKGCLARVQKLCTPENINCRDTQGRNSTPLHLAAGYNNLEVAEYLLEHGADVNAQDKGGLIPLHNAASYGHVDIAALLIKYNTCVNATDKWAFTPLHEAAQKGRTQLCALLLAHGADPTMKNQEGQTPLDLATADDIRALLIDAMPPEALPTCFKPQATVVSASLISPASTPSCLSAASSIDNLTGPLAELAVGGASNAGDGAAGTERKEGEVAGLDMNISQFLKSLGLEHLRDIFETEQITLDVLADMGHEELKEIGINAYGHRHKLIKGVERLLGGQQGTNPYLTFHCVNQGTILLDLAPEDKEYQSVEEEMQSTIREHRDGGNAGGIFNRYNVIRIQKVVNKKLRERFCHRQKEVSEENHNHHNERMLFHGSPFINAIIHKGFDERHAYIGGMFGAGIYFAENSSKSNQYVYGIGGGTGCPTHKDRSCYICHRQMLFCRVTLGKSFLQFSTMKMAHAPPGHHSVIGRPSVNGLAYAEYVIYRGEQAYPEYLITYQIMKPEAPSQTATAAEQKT
Method: The potency of selected compounds according to the invention was assessed applying an modified in vitro inhibition assay. Here, the TNKS1 catalyzed NAD^+-dependent ribosylation of the enzyme itself (auto-parsylation) was detected using [^3H]-NAD^+ as substrate and applying the scintillation proximity assay (SPA) method to detect tritium-labeled, parsylated TNKS1. The intensity of the readout signal is proportional to the incorporated [^3H]-NAD^+. Inhibition of TNKS1 leads to a decreased incorporation of [^3H]-NAD^+ and consequently to a lower readout signal intensity. The concentration of a test compound which inhibits the enzyme activity by 50% (corresponds to half of the normed readout signal intensity) is reported as IC50.
The assay was conducted in a 96 well MTP format with the identical TNKS1 enzyme sample and NAD^+ sample as in the histone ribosylation assay with the following modifications: TNKS1 enzyme sample was diluted with a modified assay buffer (50 mM MES pH 7.0, 1 mM DTT, 0.01% Triton X-100) to a final concentration of 6 nM TNKS1 and 10×NAD^+ solution was diluted with the modified assay buffer (s. above) to a final 0.445×NAD^+ solution doped with 100 Bq/ul [^3H]-NAD^+[Catalog #NET443H050UC, Perkin Elmer, Waltham, Mass., USA]. Substrate solution (10 ul) was incubated with different test compound concentrations (2.5 ul in 10% DMSO in modified assay buffer) or control (2.5 ul 10% DMSO in modified assay buffer only) and enzyme (10 ul) over night at room temperature. Incorporated tritium was measured after addition of 50 ul SPA beads (1 mg/ml) [Catalog #RPNQ0095 20 mg/ml, Perkin Elmer, Waltham, Mass., USA; diluted 1:10 with Dulbecco's phosphate buffered saline, PBS Catalog #D8537, Sigma-Aldrich, Steinheim, Germany] and detection of the photon emission with a beta count plate reader [Wallac MicroBeta®, Perkin Elmer, Waltham, Mass., USA].

[2] = HEK293 TOP reporter cell line, Wnt-3a at EC50, 16 hours incubation, compound dilution series 50 μM to 15 nM
[3] = HEK293 TOP reporter cells, Wnt3a at EC50, 16 hours, luciferase

Row | Structure (SMILES) | pIC50 [1, 2] | pIC50 [1, 3] | pIC50 (TNKS1)
1 | CNC(=O)c1nc[nH]c1C(=O)Nc1ccc(NC(=O)c2ccc(OCCN(C)C)cc2Cl)cc1 [Example 25, N^5-[4-({2-chloro-4-[2-(dimethylamino)ethoxy]benzoyl}amino)phenyl]-N^4-methyl-1H-imidazole-4,5-dicarboxamide] | 6.14 | 6.14 | 7.10
2 | CNC(=O)c1nc[nH]c1C(=O)Nc1ccc(NC(=O)c2c(Cl)cccc2Cl)cc1 [Example 26, N^5-{4-[(2,6-dichlorobenzoyl)amino]phenyl}-N^4-methyl-1H-imidazole-4,5-dicarboxamide] | 5.87 | 6.10 | 5.77
3 | CNC(=O)c1nc[nH]c1C(=O)Nc1ccc(NC(=O)c2ccccc2Cl)cc1 [Example 27, N^5-{4-[(2-chlorobenzoyl)amino]phenyl}-N^4-methyl-1H-imidazole-4,5-dicarboxamide] | 6.41 | 6.47 | 6.20
4 | CNC(=O)c1nc[nH]c1C(=O)Nc1ccc(NC(=O)c2ccc(OCCN3CCN(C)CC3)cc2Cl)cc1 [Example 28, N^5-[4-({2-chloro-4-[2-(4-methylpiperazin-1-yl)ethoxy]benzoyl}amino)phenyl]-N^4-methyl-1H-imidazole-4,5-dicarboxamide] | 6.28 | 6.17 | 7.22
5 | O=C(Nc1ccc(NC(=O)c2[nH]cnc2C(=O)NCC(F)(F)F)cc1)c1ccc(F)cc1Cl [Example 30, N^4-{4-[(2-chloro-4-fluorobenzoyl)amino]phenyl}-N^5-(2,2,2-trifluoroethyl)-1H-imidazole-4,5-dicarboxamide] | 6.72 | 6.80 | 7.30
6 | CNC(=O)c1nc[nH]c1C(=O)Nc1ccc(NC(=O)c2c(F)cc(F)cc2Cl)cc1 [Example 118, N^5-{4-[(2-chloro-4,6-difluorobenzoyl)amino]phenyl}-N^4-methyl-1H-imidazole-4,5-dicarboxamide] | 6.21 | – | 7.10
7 | O=C(NCCN1CCCCC1)c1nc[nH]c1C(=O)Nc1ccc(NC(=O)c2c(F)cc(F)cc2Cl)cc1 [Example 119, N^5-{4-[(2-chloro-4,6-difluorobenzoyl)amino]phenyl}-N^4-[2-(piperidin-1-yl)ethyl]-1H-imidazole-4,5-dicarboxamide] | 7.15 | – | 8.70
8 | NC(=O)c1nc[nH]c1C(=O)Nc1ccc(NC(=O)c2ccc(F)cc2Cl)cc1 [Example 121] | 6.57 | – | 7.40
9 | CNC(=O)c1nc[nH]c1C(=O)Nc1ccc(NC(=O)c2ccc(O)cc2Cl)cc1 [Example 122, N^5-{4-[(2-chloro-4-hydroxybenzoyl)amino]phenyl}-N^4-methyl-1H-imidazole-4,5-dicarboxamide] | 6.55 | – | 6.02
10 | CNC(=O)c1nc[nH]c1C(=O)Nc1ccc(NC(=O)c2cc(OCCN3CCN(C)CC3)ccc2Cl)cc1 [Example 124, N^5-[4-({2-chloro-5-[2-(4-methylpiperazin-1-yl)ethoxy]benzoyl}amino)phenyl]-N^4-methyl-1H-imidazole-4,5-dicarboxamide] | 4.30 | – | < 5.00
11 | CNC(=O)c1nc[nH]c1C(=O)Nc1ccc(NC(=O)c2cc(OCCN3CCCCC3)ccc2Cl)cc1 [Example 125, N^5-[4-({2-chloro-5-[2-(piperidin-1-yl)ethoxy]benzoyl}amino)phenyl]-N^4-methyl-1H-imidazole-4,5-dicarboxamide] | 5.39 | – | < 5.00
12 | CC1CCN(CCNC(=O)c2nc[nH]c2C(=O)Nc2ccc(NC(=O)c3ccc(F)cc3Cl)cc2)CC1 [Example 126, N^5-{4-[(2-chloro-4-fluorobenzoyl)amino]phenyl}-N^4-[2-(4-methylpiperidin-1-yl)ethyl]-1H-imidazole-4,5-dicarboxamide] | 7.40 | – | 8.00
13 | COCCNC(=O)c1[nH]cnc1C(=O)Nc1ccc(NC(=O)c2ccc(F)cc2Cl)cc1 [Example 130, N^4-{4-[(2-chloro-4-fluorobenzoyl)amino]phenyl}-N^5-(2-methoxyethyl)-1H-imidazole-4,5-dicarboxamide] | 6.60 | – | 7.52
14 | O=C(Nc1ccc(NC(=O)c2nc[nH]c2C(=O)NC2CC2)cc1)c1ccc(F)cc1 [Example 131, N^5-cyclopropyl-N^4-{4-[(4-fluorobenzoyl)amino]phenyl}-1H-imidazole-4,5-dicarboxamide] | 5.04 | – | < 5.00
15 | CC(C)CNC(=O)c1[nH]cnc1C(=O)Nc1ccc(NC(=O)c2ccc(F)cc2Cl)cc1 [Example 147, N^4-{4-[(2-chloro-4-fluorobenzoyl)amino]phenyl}-N^5-isobutyl-1H-imidazole-4,5-dicarboxamide] | 6.49 | – | 6.96
16 | CC(C)(C)CNC(=O)c1[nH]cnc1C(=O)Nc1ccc(NC(=O)c2ccccc2Cl)cc1 [Example 148, N^4-{4-[(2-chlorobenzoyl)amino]phenyl}-N^5-(2,2-dimethylpropyl)-1H-imidazole-4,5-dicarboxamide] | 5.76 | – | 5.89
17 | CC1CCN(CC(C)(C)NC(=O)c2[nH]cnc2C(=O)Nc2ccc(NC(=O)c3ccc(F)cc3Cl)cc2)CC1 [Example 155, N^4-{4-[(2-chloro-4-fluorobenzoyl)amino]phenyl}-N^5-[2-methyl-1-(4-methylpiperidin-1-yl)propan-2-yl]-1H-imidazole-4,5-dicarboxamide] | 6.18 | – | 7.22
18 | O=C(Nc1ccc(NC(=O)c2nc[nH]c2C(=O)NC(CO)CO)cc1)c1ccccc1Cl [Example 157, N^4-{4-[(2-chlorobenzoyl)amino]phenyl}-N^5-(1,3-dihydroxypropan-2-yl)-1H-imidazole-4,5-dicarboxamide] | 5.08 | – | 5.92
19 | CN1CCN(CCNC(=O)c2[nH]cnc2C(=O)Nc2ccc(NC(=O)c3ccccc3Cl)cc2)CC1 [Example 160, N^4-{4-[(2-chlorobenzoyl)amino]phenyl}-N^5-[2-(4-methylpiperazin-1-yl)ethyl]-1H-imidazole-4,5-dicarboxamide] | 6.24 | – | 7.10
20 | CC1CCN(CCNC(=O)c2[nH]cnc2C(=O)Nc2ccc(NC(=O)c3ccc(F)cc3)cc2)CC1 [Example 164, N^4-{4-[(4-fluorobenzoyl)amino]phenyl}-N^5-[2-(4-methylpiperidin-1-yl)ethyl]-1H-imidazole-4,5-dicarboxamide] | 6.04 | – | 7.40
